Test system: LpxC enzyme
Assay: LpxC enzyme assay (RapidFire high-throughput mass spectrometry)
Assay type: biochemical
Settings: concentration 0.10 (unit not given)
Outline: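 0.2 nM enzyme with 1.0 μM UDP-3-O-(R-3-hydroxymyristoyl)-N-acetylglucosamine in 25 mM HEPES pH 7.3, 150 mM NaCl, 2.0 mM DTT, 0.01% BSA, 2% DMSO; 60 min at room temperature, quenched with HCl. Substrate and product quantified by RapidFire mass spectrometry; percent conversion gives percent inhibition versus DMSO control.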

SMILES | LpxC enzyme assay rating (% inhibition at indicated concentrations)
CN1CCN(c2ccc(NC(=O)[C@H](O)[C@@H](O)C(=O)N(C)C)cc2)CC1 [Compound 55] | C (less than 10% inhibition)
CN(C)CCOc1ccc(NC(=O)[C@H](O)[C@@H](O)C(=O)N(C)C)cc1 [Compound 56] | C (less than 10% inhibition)
CN(C)CCCOc1ccc(NC(=O)[C@H](O)[C@@H](O)C(=O)N(C)C)cc1 [Compound 57] | B (10-30% inhibition)
CN(C)C(=O)[C@H](O)[C@@H](O)C(=O)Nc1ccc(-n2cccn2)cc1 [Compound 58] | C (less than 10% inhibition)
CN(C)C(=O)[C@H](O)[C@@H](O)C(=O)Nc1ccc(-c2cc[nH]n2)cc1 [Compound 59] | B (10-30% inhibition)
O=C(NCCCCl)[C@H](O)[C@@H](O)C(=O)Nc1ccc(C#Cc2ccccc2)cc1 [Compound 60] | C (less than 10% inhibition)
CCCc1ccc(NC(=O)[C@H](O)[C@@H](O)C(=O)NCCCCl)cc1 [Compound 61] | C (less than 10% inhibition)
O=C(NCCCCl)[C@H](O)[C@@H](O)C(=O)Nc1ccc(-n2cccn2)cc1 [Compound 62] | C (less than 10% inhibition)
O=C(Nc1ccc(C#Cc2ccccc2)cc1)[C@H](O)[C@@H](O)C(=O)N1CCCC1 [Compound 63] | B (10-30% inhibition)

Same assay, conditions: concentration 0.20 (unit not given)

SMILES | LpxC enzyme assay rating (% inhibition at indicated concentrations)
CN1CCN(c2ccc(NC(=O)[C@H](O)[C@@H](O)C(=O)N(C)C)cc2)CC1 [Compound 55] | B (10-30% inhibition)
CN(C)CCOc1ccc(NC(=O)[C@H](O)[C@@H](O)C(=O)N(C)C)cc1 [Compound 56] | B (10-30% inhibition)
CN(C)CCCOc1ccc(NC(=O)[C@H](O)[C@@H](O)C(=O)N(C)C)cc1 [Compound 57] | C (less than 10% inhibition)
CN(C)C(=O)[C@H](O)[C@@H](O)C(=O)Nc1ccc(-n2cccn2)cc1 [Compound 58] | B (10-30% inhibition)
CN(C)C(=O)[C@H](O)[C@@H](O)C(=O)Nc1ccc(-c2cc[nH]n2)cc1 [Compound 59] | C (less than 10% inhibition)
O=C(NCCCCl)[C@H](O)[C@@H](O)C(=O)Nc1ccc(C#Cc2ccccc2)cc1 [Compound 60] | C (less than 10% inhibition)
CCCc1ccc(NC(=O)[C@H](O)[C@@H](O)C(=O)NCCCCl)cc1 [Compound 61] | C (less than 10% inhibition)
O=C(NCCCCl)[C@H](O)[C@@H](O)C(=O)Nc1ccc(-n2cccn2)cc1 [Compound 62] | C (less than 10% inhibition)
O=C(Nc1ccc(C#Cc2ccccc2)cc1)[C@H](O)[C@@H](O)C(=O)N1CCCC1 [Compound 63] | B (10-30% inhibition)

Same assay, conditions: concentration 0.39 (unit not given)

SMILES | LpxC enzyme assay rating (% inhibition at indicated concentrations)
CN1CCN(c2ccc(NC(=O)[C@H](O)[C@@H](O)C(=O)N(C)C)cc2)CC1 [Compound 55] | C (less than 10% inhibition)
CN(C)CCOc1ccc(NC(=O)[C@H](O)[C@@H](O)C(=O)N(C)C)cc1 [Compound 56] | C (less than 10% inhibition)
CN(C)CCCOc1ccc(NC(=O)[C@H](O)[C@@H](O)C(=O)N(C)C)cc1 [Compound 57] | B (10-30% inhibition)
CN(C)C(=O)[C@H](O)[C@@H](O)C(=O)Nc1ccc(-n2cccn2)cc1 [Compound 58] | C (less than 10% inhibition)
CN(C)C(=O)[C@H](O)[C@@H](O)C(=O)Nc1ccc(-c2cc[nH]n2)cc1 [Compound 59] | B (10-30% inhibition)
O=C(NCCCCl)[C@H](O)[C@@H](O)C(=O)Nc1ccc(C#Cc2ccccc2)cc1 [Compound 60] | B (10-30% inhibition)
CCCc1ccc(NC(=O)[C@H](O)[C@@H](O)C(=O)NCCCCl)cc1 [Compound 61] | C (less than 10% inhibition)
O=C(NCCCCl)[C@H](O)[C@@H](O)C(=O)Nc1ccc(-n2cccn2)cc1 [Compound 62] | C (less than 10% inhibition)
O=C(Nc1ccc(C#Cc2ccccc2)cc1)[C@H](O)[C@@H](O)C(=O)N1CCCC1 [Compound 63] | B (10-30% inhibition)

Same assay, conditions: concentration 0.78 (unit not given)

SMILES | LpxC enzyme assay rating (% inhibition at indicated concentrations)
CN1CCN(c2ccc(NC(=O)[C@H](O)[C@@H](O)C(=O)N(C)C)cc2)CC1 [Compound 55] | B (10-30% inhibition)
CN(C)CCOc1ccc(NC(=O)[C@H](O)[C@@H](O)C(=O)N(C)C)cc1 [Compound 56] | C (less than 10% inhibition)
CN(C)CCCOc1ccc(NC(=O)[C@H](O)[C@@H](O)C(=O)N(C)C)cc1 [Compound 57] | C (less than 10% inhibition)
CN(C)C(=O)[C@H](O)[C@@H](O)C(=O)Nc1ccc(-n2cccn2)cc1 [Compound 58] | B (10-30% inhibition)
CN(C)C(=O)[C@H](O)[C@@H](O)C(=O)Nc1ccc(-c2cc[nH]n2)cc1 [Compound 59] | C (less than 10% inhibition)
O=C(NCCCCl)[C@H](O)[C@@H](O)C(=O)Nc1ccc(C#Cc2ccccc2)cc1 [Compound 60] | B (10-30% inhibition)
CCCc1ccc(NC(=O)[C@H](O)[C@@H](O)C(=O)NCCCCl)cc1 [Compound 61] | C (less than 10% inhibition)
O=C(NCCCCl)[C@H](O)[C@@H](O)C(=O)Nc1ccc(-n2cccn2)cc1 [Compound 62] | C (less than 10% inhibition)
O=C(Nc1ccc(C#Cc2ccccc2)cc1)[C@H](O)[C@@H](O)C(=O)N1CCCC1 [Compound 63] | C (less than 10% inhibition)

Same assay, conditions: concentration 1.56 (unit not given)

SMILES | LpxC enzyme assay rating (% inhibition at indicated concentrations)
CN1CCN(c2ccc(NC(=O)[C@H](O)[C@@H](O)C(=O)N(C)C)cc2)CC1 [Compound 55] | B (10-30% inhibition)
CN(C)CCOc1ccc(NC(=O)[C@H](O)[C@@H](O)C(=O)N(C)C)cc1 [Compound 56] | C (less than 10% inhibition)
CN(C)CCCOc1ccc(NC(=O)[C@H](O)[C@@H](O)C(=O)N(C)C)cc1 [Compound 57] | C (less than 10% inhibition)
CN(C)C(=O)[C@H](O)[C@@H](O)C(=O)Nc1ccc(-n2cccn2)cc1 [Compound 58] | C (less than 10% inhibition)
CN(C)C(=O)[C@H](O)[C@@H](O)C(=O)Nc1ccc(-c2cc[nH]n2)cc1 [Compound 59] | C (less than 10% inhibition)
O=C(NCCCCl)[C@H](O)[C@@H](O)C(=O)Nc1ccc(C#Cc2ccccc2)cc1 [Compound 60] | C (less than 10% inhibition)
CCCc1ccc(NC(=O)[C@H](O)[C@@H](O)C(=O)NCCCCl)cc1 [Compound 61] | C (less than 10% inhibition)
O=C(NCCCCl)[C@H](O)[C@@H](O)C(=O)Nc1ccc(-n2cccn2)cc1 [Compound 62] | B (10-30% inhibition)
O=C(Nc1ccc(C#Cc2ccccc2)cc1)[C@H](O)[C@@H](O)C(=O)N1CCCC1 [Compound 63] | B (10-30% inhibition)

Same assay, conditions: concentration 3.13 (unit not given)

SMILES | LpxC enzyme assay rating (% inhibition at indicated concentrations)
CN1CCN(c2ccc(NC(=O)[C@H](O)[C@@H](O)C(=O)N(C)C)cc2)CC1 [Compound 55] | B (10-30% inhibition)
CN(C)CCOc1ccc(NC(=O)[C@H](O)[C@@H](O)C(=O)N(C)C)cc1 [Compound 56] | C (less than 10% inhibition)
CN(C)CCCOc1ccc(NC(=O)[C@H](O)[C@@H](O)C(=O)N(C)C)cc1 [Compound 57] | C (less than 10% inhibition)
CN(C)C(=O)[C@H](O)[C@@H](O)C(=O)Nc1ccc(-n2cccn2)cc1 [Compound 58] | B (10-30% inhibition)
CN(C)C(=O)[C@H](O)[C@@H](O)C(=O)Nc1ccc(-c2cc[nH]n2)cc1 [Compound 59] | C (less than 10% inhibition)
O=C(NCCCCl)[C@H](O)[C@@H](O)C(=O)Nc1ccc(C#Cc2ccccc2)cc1 [Compound 60] | B (10-30% inhibition)
CCCc1ccc(NC(=O)[C@H](O)[C@@H](O)C(=O)NCCCCl)cc1 [Compound 61] | C (less than 10% inhibition)
O=C(NCCCCl)[C@H](O)[C@@H](O)C(=O)Nc1ccc(-n2cccn2)cc1 [Compound 62] | C (less than 10% inhibition)
O=C(Nc1ccc(C#Cc2ccccc2)cc1)[C@H](O)[C@@H](O)C(=O)N1CCCC1 [Compound 63] | B (10-30% inhibition)

Same assay, conditions: concentration 6.25 (unit not given)

SMILES | LpxC enzyme assay rating (% inhibition at indicated concentrations)
CN1CCN(c2ccc(NC(=O)[C@H](O)[C@@H](O)C(=O)N(C)C)cc2)CC1 [Compound 55] | C (less than 10% inhibition)
CN(C)CCOc1ccc(NC(=O)[C@H](O)[C@@H](O)C(=O)N(C)C)cc1 [Compound 56] | B (10-30% inhibition)
CN(C)CCCOc1ccc(NC(=O)[C@H](O)[C@@H](O)C(=O)N(C)C)cc1 [Compound 57] | C (less than 10% inhibition)
CN(C)C(=O)[C@H](O)[C@@H](O)C(=O)Nc1ccc(-n2cccn2)cc1 [Compound 58] | B (10-30% inhibition)
CN(C)C(=O)[C@H](O)[C@@H](O)C(=O)Nc1ccc(-c2cc[nH]n2)cc1 [Compound 59] | C (less than 10% inhibition)
O=C(NCCCCl)[C@H](O)[C@@H](O)C(=O)Nc1ccc(C#Cc2ccccc2)cc1 [Compound 60] | B (10-30% inhibition)
CCCc1ccc(NC(=O)[C@H](O)[C@@H](O)C(=O)NCCCCl)cc1 [Compound 61] | C (less than 10% inhibition)
O=C(NCCCCl)[C@H](O)[C@@H](O)C(=O)Nc1ccc(-n2cccn2)cc1 [Compound 62] | B (10-30% inhibition)
O=C(Nc1ccc(C#Cc2ccccc2)cc1)[C@H](O)[C@@H](O)C(=O)N1CCCC1 [Compound 63] | B (10-30% inhibition)

Same assay, conditions: concentration 12.50 (unit not given)

SMILES | LpxC enzyme assay rating (% inhibition at indicated concentrations)
CN1CCN(c2ccc(NC(=O)[C@H](O)[C@@H](O)C(=O)N(C)C)cc2)CC1 [Compound 55] | C (less than 10% inhibition)
CN(C)CCOc1ccc(NC(=O)[C@H](O)[C@@H](O)C(=O)N(C)C)cc1 [Compound 56] | C (less than 10% inhibition)
CN(C)CCCOc1ccc(NC(=O)[C@H](O)[C@@H](O)C(=O)N(C)C)cc1 [Compound 57] | C (less than 10% inhibition)
CN(C)C(=O)[C@H](O)[C@@H](O)C(=O)Nc1ccc(-n2cccn2)cc1 [Compound 58] | B (10-30% inhibition)
CN(C)C(=O)[C@H](O)[C@@H](O)C(=O)Nc1ccc(-c2cc[nH]n2)cc1 [Compound 59] | C (less than 10% inhibition)
O=C(NCCCCl)[C@H](O)[C@@H](O)C(=O)Nc1ccc(C#Cc2ccccc2)cc1 [Compound 60] | B (10-30% inhibition)
CCCc1ccc(NC(=O)[C@H](O)[C@@H](O)C(=O)NCCCCl)cc1 [Compound 61] | C (less than 10% inhibition)
O=C(NCCCCl)[C@H](O)[C@@H](O)C(=O)Nc1ccc(-n2cccn2)cc1 [Compound 62] | B (10-30% inhibition)
O=C(Nc1ccc(C#Cc2ccccc2)cc1)[C@H](O)[C@@H](O)C(=O)N1CCCC1 [Compound 63] | A (greater than 30% inhibition)

Same assay, conditions: concentration 25 (unit not given)

SMILES | LpxC enzyme assay rating (% inhibition at indicated concentrations)
CN1CCN(c2ccc(NC(=O)[C@H](O)[C@@H](O)C(=O)N(C)C)cc2)CC1 [Compound 55] | B (10-30% inhibition)
CN(C)CCOc1ccc(NC(=O)[C@H](O)[C@@H](O)C(=O)N(C)C)cc1 [Compound 56] | C (less than 10% inhibition)
CN(C)CCCOc1ccc(NC(=O)[C@H](O)[C@@H](O)C(=O)N(C)C)cc1 [Compound 57] | B (10-30% inhibition)
CN(C)C(=O)[C@H](O)[C@@H](O)C(=O)Nc1ccc(-n2cccn2)cc1 [Compound 58] | C (less than 10% inhibition)
CN(C)C(=O)[C@H](O)[C@@H](O)C(=O)Nc1ccc(-c2cc[nH]n2)cc1 [Compound 59] | B (10-30% inhibition)
O=C(NCCCCl)[C@H](O)[C@@H](O)C(=O)Nc1ccc(C#Cc2ccccc2)cc1 [Compound 60] | C (less than 10% inhibition)
CCCc1ccc(NC(=O)[C@H](O)[C@@H](O)C(=O)NCCCCl)cc1 [Compound 61] | B (10-30% inhibition)
O=C(NCCCCl)[C@H](O)[C@@H](O)C(=O)Nc1ccc(-n2cccn2)cc1 [Compound 62] | B (10-30% inhibition)
O=C(Nc1ccc(C#Cc2ccccc2)cc1)[C@H](O)[C@@H](O)C(=O)N1CCCC1 [Compound 63] | A (greater than 30% inhibition)

Same assay, conditions: concentration 50 (unit not given)

SMILES | LpxC enzyme assay rating (% inhibition at indicated concentrations)
CN1CCN(c2ccc(NC(=O)[C@H](O)[C@@H](O)C(=O)N(C)C)cc2)CC1 [Compound 55] | B (10-30% inhibition)
CN(C)CCOc1ccc(NC(=O)[C@H](O)[C@@H](O)C(=O)N(C)C)cc1 [Compound 56] | C (less than 10% inhibition)
CN(C)CCCOc1ccc(NC(=O)[C@H](O)[C@@H](O)C(=O)N(C)C)cc1 [Compound 57] | C (less than 10% inhibition)
CN(C)C(=O)[C@H](O)[C@@H](O)C(=O)Nc1ccc(-n2cccn2)cc1 [Compound 58] | B (10-30% inhibition)
CN(C)C(=O)[C@H](O)[C@@H](O)C(=O)Nc1ccc(-c2cc[nH]n2)cc1 [Compound 59] | C (less than 10% inhibition)
O=C(NCCCCl)[C@H](O)[C@@H](O)C(=O)Nc1ccc(C#Cc2ccccc2)cc1 [Compound 60] | C (less than 10% inhibition)
CCCc1ccc(NC(=O)[C@H](O)[C@@H](O)C(=O)NCCCCl)cc1 [Compound 61] | B (10-30% inhibition)
O=C(NCCCCl)[C@H](O)[C@@H](O)C(=O)Nc1ccc(-n2cccn2)cc1 [Compound 62] | C (less than 10% inhibition)
O=C(Nc1ccc(C#Cc2ccccc2)cc1)[C@H](O)[C@@H](O)C(=O)N1CCCC1 [Compound 63] | A (greater than 30% inhibition)
